The subject of assay [1] is human SKM-1 acute myeloid leukemia cells. As to the kind of experiment: SKM-1 antiproliferation cell-based assay (ATPlite). The following applies: Homo sapiens, SKM-1, 96 h, SKM-1 antiproliferation assay, 4 days, Table C2. Summed up: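 Log-phase cells in RPMI 1640/15% FBS were seeded at 34722 cells/mL and exposed for 4 days to nine-concentration DMSO serial dilutions in triplicate. Viability was read as ATP luminescence (ATPlite 1step), and IC50 values came from variable-slope non-linear regression.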
(In ATP-based viability assays light output follows the ATP content of the culture.)

Assay [2] deals with T1, human BRD4 bromodomain II (Homo sapiens, UniProt O60885).
T1 construct: human BRD4 bromodomain II [based on Genbank NM_058243, residues 349-460]; host or cells: E. coli
As to the kind of experiment: Bromodomain binding assay (AlphaScreen), BRD4 BDII. Particulars: AlphaScreen assay, Table C2; read-out: BRD4 BDII IC50. Summed up: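 AlphaScreen competition: His6-BRD4 BDI (aa 44-170) or BDII (aa 349-460) vs biotin-H4(1-21) K5/K8/K12/K16Ac peptide; Ni-chelate acceptor/streptavidin donor beads. HEPES pH 7.5, NaCl, CHAPS, BSA, 1% DMSO; RT. 10-pt 3-fold titration, % peptide binding fitted → IC50.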
(In Alpha technology, singlet oxygen from a donor bead excites a nearby acceptor bead.)

With `Cc1cc(-c2cc(F)cc(-c3ccnc(N4CCNCC4)c3)c2O)ccc1N1CCN(C)C1=O` [Example 380, 1-(5′-fluoro-2′-hydroxy-3-methyl-3′-(2-(piperazin-1-yl)pyridin-4-yl)-[1,1′-biphenyl]-4-yl)-3-methylimidazolidin-2-one], the GI50 (commonly the concentration that inhibits growth by half) in assay [1] was 30 to 300 nM. Moreover, the IC50 (as a rule, the midpoint of a concentration-inhibition curve) in assay [2] is 1 to 10 nM.

The molecule `CC(=O)N1CCN(c2ccc(-c3cc(F)cc(-c4ccnc(N5CCNCC5)c4)c3O)cc2Cl)C1=O` [Example 381, 1-acetyl-3-(3-chloro-5′-fluoro-2′-hydroxy-3′-(2-(piperazin-1-yl)pyridin-4-yl)-[1,1′-biphenyl]-4-yl)imidazolidin-2-one] registered a 50% growth inhibitory concentration (GI50) in assay [1] of 300 to 3000 nM. Besides, the IC50 in assay [2] was > 100 nM.

As to `CCc1ncc(-c2cc(F)cc(-c3ccc(N4CCN(C)C4=O)c(Cl)c3)c2O)cc1N1CCNCC1` [Example 382, 1-(3-chloro-3′-(6-ethyl-5-(piperazin-1-yl)pyridin-3-yl)-5′-fluoro-2′-hydroxy-[1,1′-biphenyl]-4-yl)-3-methylimidazolidin-2-one], the GI50 in assay [1] was in the range of 30 to 300 nM. Besides, the IC50 in assay [2] lay within 1 to 10 nM.

In turn, `CC(=O)Nc1cc(-c2cccc(-c3ccc(N4CCN(C)C4=O)c(Cl)c3)c2O)cc(N2CCNCC2)n1` [Example 383, N-(4-(3′-chloro-2-hydroxy-4′-(3-methyl-2-oxoimidazolidin-1-yl)-[1,1′-biphenyl]-3-yl)-6-(piperazin-1-yl)pyridin-2-yl)acetamide] had a GI50 in assay [1] of 0.3 to 30 nM. Moreover, in assay [2], the IC50 lay within 1 to 10 nM.

Molecule `CN1CCN(c2c(F)cc(-c3cc(F)cc(-c4ccnc(N5CCNCC5)c4)c3O)cc2F)C1=O` [Example 384, 1-methyl-3-(3,5,5′-trifluoro-2′-hydroxy-3′-(2-(piperazin-1-yl)pyridin-4-yl)-[1,1′-biphenyl]-4-yl)imidazolidin-2-one] gave a concentration for 50% growth inhibition (GI50) in assay [1] of 300 to 3000 nM. Further, in assay [2], the IC50 lay within 10 to 100 nM.

In assay [1], `Cc1cc(-c2cc(F)cc(-c3ccnc(N4CCNCC4)c3)c2O)cc(Cl)c1N1CCN(C)C1=O` [Example 385, 1-(3-chloro-5′-fluoro-2′-hydroxy-5-methyl-3′-(2-(piperazin-1-yl)pyridin-4-yl)-[1,1′-biphenyl]-4-yl)-3-methylimidazolidin-2-one] returned a concentration for 50% growth inhibition (GI50) of 300 to 3000 nM. Besides, the IC50 in assay [2] was > 100 nM.

In assay [1], `Cc1cc(-c2cc(F)cc(-c3ccnc(N4CCNCC4)c3)c2O)cc(Cl)c1N1CCCC1=O` [Example 386, 1-(3-chloro-5′-fluoro-2′-hydroxy-5-methyl-3′-(2-(piperazin-1-yl)pyridin-4-yl)-[1,1′-biphenyl]-4-yl)pyrrolidin-2-one] returned a GI50 of 300 to 3000 nM. The IC50 in assay [2] was > 100 nM.

In assay [1], `CN1CCN(c2ccc(-c3cc(F)cc(-c4cnc(CO)c(N5CCNCC5)c4)c3O)cc2Cl)C1=O` [Example 387, 1-(3-chloro-5′-fluoro-2′-hydroxy-3′-(6-(hydroxymethyl)-5-(piperazin-1-yl)pyridin-3-yl)-[1,1′-biphenyl]-4-yl)-3-methylimidazolidin-2-one] had a 50% growth inhibitory concentration (GI50) of 30 to 300 nM. Besides, the half-inhibitory concentration (IC50) in assay [2] lay within 1 to 10 nM.

`Cc1ncc(-c2cc(F)cc(-c3ccc(N4CCN(C)C4=O)c(Cl)c3)c2O)cc1N1CCNCC1` [Example 388, 1-(3-chloro-5′-fluoro-2′-hydroxy-3′-(6-methyl-5-(piperazin-1-yl)pyridin-3-yl)-[1,1′-biphenyl]-4-yl)-3-methylimidazolidin-2-one] displayed a concentration for 50% growth inhibition (GI50) in assay [1] of 30 to 300 nM. For the same molecule, the IC50 in assay [2] is 1 to 10 nM.

Molecule `CC(=O)Nc1ncc(-c2cc(F)cc(-c3ccc(N4CCN(C)C4=O)c(Cl)c3)c2O)cc1N1CCNCC1` [Example 389, N-(5-(3′-chloro-5-fluoro-2-hydroxy-4′-(3-methyl-2-oxoimidazolidin-1-yl)-[1,1′-biphenyl]-3-yl)-3-(piperazin-1-yl)pyridin-2-yl)acetamide] displayed a concentration for 50% growth inhibition (GI50) in assay [1] of 30 to 300 nM. Moreover, the 50% inhibitory concentration (IC50) in assay [2] lay in the range of 1 to 10 nM.

On to `CN1CCN(c2ccc(-c3cc(F)cc(-c4cnc(-c5cn[nH]c5)c(N5CCNCC5)c4)c3O)cc2Cl)C1=O` [Example 390, 1-(3-chloro-5′-fluoro-2′-hydroxy-3′-(5-(piperazin-1-yl)-6-(1H-pyrazol-4-yl)pyridin-3-yl)-[1,1′-biphenyl]-4-yl)-3-methylimidazolidin-2-one], for which, in assay [1], the GI50 fell in the range of 300 to 3000 nM. Moreover, the half-maximal inhibitory concentration (IC50) in assay [2] was 1 to 10 nM.

Molecule `CN1CCN(c2ccc(-c3cc(F)cc(-c4cnc(-c5ccn[nH]5)c(N5CCNCC5)c4)c3O)cc2Cl)C1=O` [Example 391, 1-(3-chloro-5′-fluoro-2′-hydroxy-3′-(5-(piperazin-1-yl)-6-(1H-pyrazol-5-yl)pyridin-3-yl)-[1,1′-biphenyl]-4-yl)-3-methylimidazolidin-2-one] yielded a GI50 in assay [1] of 30 to 300 nM. For the same molecule, the IC50 in assay [2] fell in the range of 1 to 10 nM.

As to `CN1CCN(c2ccc(-c3cc(F)cc(-c4cnc(OCCO)c(N5CCNCC5)c4)c3O)cc2Cl)C1=O` [Example 392, 1-(3-chloro-5′-fluoro-2′-hydroxy-3′-(6-(2-hydroxyethoxy)-5-(piperazin-1-yl)pyridin-3-yl)-[1,1′-biphenyl]-4-yl)-3-methylimidazolidin-2-one], the GI50 in assay [1] is 30 to 300 nM. The IC50 in assay [2] lay within 1 to 10 nM.

Take `COCCOc1ncc(-c2cc(F)cc(-c3ccc(N4CCN(C)C4=O)c(Cl)c3)c2O)cc1N1CCNCC1` [Example 393, 1-(3-chloro-5′-fluoro-2′-hydroxy-3′-(6-(2-methoxyethoxy)-5-(piperazin-1-yl)pyridin-3-yl)-[1,1′-biphenyl]-4-yl)-3-methylimidazolidin-2-one]: in assay [1], the 50% growth inhibitory concentration (GI50) fell in the range of 30 to 300 nM. Also, in assay [2], the half-inhibitory concentration (IC50) lay within 1 to 10 nM.

In the case of `CN1CCN(c2ccc(-c3cc(F)cc(-c4cc(N5CC[C@H](N)C5)c(=O)n(C)c4)c3O)cc2Cl)C1=O` [Example 394, (S)-3-(3-aminopyrrolidin-1-yl)-5-(3′-chloro-5-fluoro-2-hydroxy-4′-(3-methyl-2-oxoimidazolidin-1-yl)-[1,1′-biphenyl]-3-yl)-1-methylpyridin-2(1H)-one], the 50% growth inhibitory concentration (GI50) in assay [1] was in the range of 30 to 300 nM. In addition, the IC50 in assay [2] was 1 to 10 nM.

Take `CC(=O)NCCNc1ncc(-c2cc(F)cc(-c3ccc(N4CCN(C)C4=O)c(Cl)c3)c2O)cc1N1CCNCC1` [Example 395, N-(2-((5-(3′-chloro-5-fluoro-2-hydroxy-4′-(3-methyl-2-oxoimidazolidin-1-yl)-[1,1′-biphenyl]-3-yl)-3-(piperazin-1-yl)pyridin-2-yl)amino)ethyl)acetamide]: the GI50 in assay [1] was in the range of 30 to 300 nM. Further, the 50% inhibitory concentration (IC50) in assay [2] fell in the range of 1 to 10 nM.

In assay [1], `CC(=O)NCCOc1ncc(-c2cc(F)cc(-c3ccc(N4CCN(C)C4=O)c(Cl)c3)c2O)cc1N1CCNCC1` [Example 396, N-(2-((5-(3′-chloro-5-fluoro-2-hydroxy-4′-(3-methyl-2-oxoimidazolidin-1-yl)-[1,1′-biphenyl]-3-yl)-3-(piperazin-1-yl)pyridin-2-yl)oxy)ethyl)acetamide] returned a GI50 of 30 to 300 nM. In assay [2], the IC50 was 1 to 10 nM.

Take `CN1CCN(c2ccc(-c3cc(F)cc(-c4cnc(N5CCCC5)c(N5CCNCC5)c4)c3O)cc2Cl)C1=O` [Example 397, 1-(3-chloro-5′-fluoro-2′-hydroxy-3′-(5-(piperazin-1-yl)-6-(pyrrolidin-1-yl)pyridin-3-yl)-[1,1′-biphenyl]-4-yl)-3-methylimidazolidin-2-one]: in assay [1], the GI50 lay in the range of 30 to 300 nM. The IC50 in assay [2] lay in the range of 1 to 10 nM.

As to `CN1CCN(c2ccc(-c3cc(F)cc(-c4cnc(C(=O)O)c(N5CCNCC5)c4)c3O)cc2Cl)C1=O` [Example 398, 5−(3′-chloro-5-fluoro-2-hydroxy-4′-(3-methyl-2-oxoimidazolidin-1-yl)-[1,1′-biphenyl]-3-yl)-3-(piperazin-1-yl)picolinic acid], the 50% growth inhibitory concentration (GI50) in assay [1] was ≥ 3000 nM. Moreover, in assay [2], the IC50 lay in the range of 10 to 100 nM.

In turn, `COCc1ncc(-c2cc(F)cc(-c3ccc(N4CCN(C)C4=O)c(Cl)c3)c2O)cc1N1CCNCC1` [Example 399, 1-(3-chloro-5′-fluoro-2′-hydroxy-3′-(6-(methoxymethyl)-5-(piperazin-1-yl)pyridin-3-yl)-[1,1′-biphenyl]-4-yl)-3-methylimidazolidin-2-one] registered a 50% growth inhibitory concentration (GI50) in assay [1] of 30 to 300 nM. Also, the IC50 in assay [2] was 1 to 10 nM.

`CN1CCN(c2c(F)cc(-c3cc(F)cc(-c4ccnc(N5CCNCC5)c4)c3O)cc2Cl)C1=O` [Example 400, 1-(3-chloro-5,5′-difluoro-2′-hydroxy-3′-(2-(piperazin-1-yl)pyridin-4-yl)-[1,1′-biphenyl]-4-yl)-3-methylimidazolidin-2-one] came in with a GI50 in assay [1] of 300 to 3000 nM. Further, in assay [2], the concentration for half-maximal inhibition (IC50) was in the range of 10 to 100 nM.

Molecule `CN1CCN(c2ccc(-c3cc(F)cc(-c4cc(C5=CCNCC5)cn(C)c4=O)c3O)cc2Cl)C1=O` [Example 401, 5-(3′-chloro-5-fluoro-2-hydroxy-4′-(3-methyl-2-oxoimidazolidin-1-yl)-[1,1′-biphenyl]-3-yl)-1-methyl-1′,2′,3′,6′-tetrahydro-[3,4′-bipyridin]-6(1H)-one] showed a GI50 in assay [1] of 300 to 3000 nM. For the same molecule, the 50% inhibitory concentration (IC50) in assay [2] is > 100 nM.

Regarding `O=C1CCCN1c1c(Cl)cc(-c2cc(F)cc(-c3ccnc(N4CCNCC4)c3)c2O)cc1Cl` [Example 402, 1-(3,5-dichloro-5′-fluoro-2′-hydroxy-3′-(2-(piperazin-1-yl)pyridin-4-yl)-[1,1′-biphenyl]-4-yl)pyrrolidin-2-one], in assay [1], the GI50 fell in the range of 300 to 3000 nM. Also, in assay [2], the IC50 was > 100 nM.

Take `CC#Cc1ncc(-c2cc(F)cc(-c3ccc(N4CCN(C)C4=O)c(Cl)c3)c2O)cc1N1CCNCC1` [Example 403, 1-(3-chloro-5′-fluoro-2′-hydroxy-3′-(5-(piperazin-1-yl)-6-(prop-1-yn-1-yl)pyridin-3-yl)-[1,1′-biphenyl]-4-yl)-3-methylimidazolidin-2-one]: the GI50 in assay [1] fell in the range of 0.3 to 30 nM. The IC50 in assay [2] lay within 1 to 10 nM.

The values above are taken from US20250179059A1 (The Regents of the University of California, priority 2021, published 2025).
